Test: molar heat capacity at saturation pressure
Conditions: Crystal, Vacuum adiabatic calorimetry

CCCCCCCCCC(=O)OCC [ethyl decanoate]
Conditions | molar heat capacity [J/K/mol]
5.07 K | 0.5226
5.31 K | 0.6118
5.56 K | 0.7121
5.81 K | 0.825
6.07 K | 0.9558
6.36 K | 1.118
6.69 K | 1.318
7.02 K | 1.545
7.35 K | 1.796
7.7 K | 2.073
8.04 K | 2.376
8.4 K | 2.709
8.76 K | 3.071
9.12 K | 3.453
9.48 K | 3.859
9.85 K | 4.299
10.32 K | 4.888
10.9 K | 5.635
11.48 K | 6.424
12.07 K | 7.27
12.66 K | 8.157
13.26 K | 9.088
13.87 K | 10.03
14.47 K | 11.01
15.09 K | 12.05
15.81 K | 13.35
16.64 K | 14.88
17.48 K | 16.38
18.32 K | 17.92
19.16 K | 19.47
20.01 K | 21.05
21.18 K | 23.32
22.7 K | 26.32
24.23 K | 29.4
25.75 K | 32.51
27.29 K | 35.64
28.39 K | 37.87
29.64 K | 40.42
31.35 K | 43.96
33.22 K | 47.77
35.1 K | 51.55
36.98 K | 55.32
38.87 K | 59.03
40.75 K | 62.74
42.73 K | 66.71
44.82 K | 70.83
46.9 K | 74.94
49 K | 78.99
51.09 K | 82.94
53.19 K | 86.89
55.3 K | 90.74
57.4 K | 94.51
59.52 K | 98.2
61.64 K | 101.8
63.76 K | 105.3
65.89 K | 108.8
68.01 K | 112.1
70.14 K | 115.4
72.38 K | 118.9
74.72 K | 122.4
77.07 K | 125.9
79.44 K | 129.4
80.12 K | 130.3
81.8 K | 132.9
81.98 K | 133
83.85 K | 135.7
84.15 K | 136.2
85.73 K | 138.3
87.62 K | 141
89.51 K | 143.6
91.41 K | 146.2
93.31 K | 148.8
95.22 K | 151.3
97.14 K | 153.8
99.06 K | 156.2
100.98 K | 158.7
102.91 K | 161
104.84 K | 163.3
106.77 K | 165.7
108.71 K | 167.9
110.66 K | 170
112.6 K | 172.2
114.55 K | 174.3
116.5 K | 176.4
118.46 K | 178.5
120.41 K | 180.4
122.37 K | 182.4
124.33 K | 184.3
126.29 K | 186.2
128.26 K | 188
130.23 K | 189.8
130.37 K | 189.7
132.19 K | 191.6
132.31 K | 191.5
134.17 K | 193.3
134.25 K | 193.3
136.14 K | 195.1
136.19 K | 195
138.12 K | 196.8
138.13 K | 196.6
140.08 K | 198.3
140.1 K | 198.4
142.02 K | 200
142.07 K | 200.1
143.97 K | 201.6
144.06 K | 201.8
145.92 K | 203.3
146.04 K | 203.6
147.87 K | 205
148.02 K | 205.3
149.82 K | 206.5
150 K | 206.9
151.77 K | 208.2
151.98 K | 208.5
153.72 K | 209.7
153.97 K | 210
155.68 K | 211.2
155.95 K | 211.5
157.63 K | 212.8
157.93 K | 213.2
159.59 K | 214.4
159.92 K | 214.8
161.55 K | 215.9
161.91 K | 216.3
163.5 K | 217.4
163.89 K | 217.8
165.46 K | 218.9
165.88 K | 219.2
167.42 K | 220.4
167.86 K | 220.8
169.38 K | 222
169.85 K | 222.3
171.34 K | 223.6
171.83 K | 223.9
173.3 K | 225.1
173.81 K | 225.6
175.26 K | 226.6
175.79 K | 227.1
177.23 K | 228.3
177.77 K | 228.7
179.19 K | 229.8
179.74 K | 230.3
180.73 K | 230.9
181.15 K | 231.3
181.61 K | 231.8
181.72 K | 232
182.71 K | 232.5
183.11 K | 233.1
183.59 K | 233.4
183.69 K | 233.6
184.69 K | 234.2
185.07 K | 234.7
185.57 K | 235.1
185.67 K | 235.2
186.66 K | 235.8
187.04 K | 236.4
187.54 K | 236.7
187.64 K | 236.8
188.63 K | 237.5
189 K | 238
189.52 K | 238.4
189.6 K | 238.5
190.6 K | 239.3
190.96 K | 239.7
191.49 K | 240
191.57 K | 240.2
191.61 K | 240.1
192.56 K | 240.9
192.93 K | 241.4
193.45 K | 241.6
193.53 K | 241.9
193.58 K | 241.8
194.53 K | 242.6
194.89 K | 243.1
195.42 K | 243.3
195.48 K | 243.5
195.54 K | 243.5
196.49 K | 244.4
196.85 K | 244.7
197.38 K | 245
197.44 K | 245.2
197.5 K | 245.2
198.44 K | 246.2
198.81 K | 246.5
199.33 K | 246.7
199.39 K | 247
199.46 K | 246.8
200.4 K | 247.8
200.77 K | 248.3
201.28 K | 248.3
201.35 K | 248.7
201.46 K | 248.6
202.35 K | 249.5
202.74 K | 249.9
203.24 K | 250.1
203.29 K | 250.4
203.52 K | 250.4
204.3 K | 251.3

— the NIST ThermoML archive (doi:10.1021/je900093h)
